Experimental data from patent US10730850B2, “Pyridinylmethyl carbamimidoylcarbamate derivatives and their use as AOC3 inhibitors” (Boehringer Ingelheim International GmbH, priority 2016, dated 2020).

Assays:
AOC3 = AOC3 (Homo sapiens (Human), UniProt Q16853); assay: MAO-Glo AOC3 assay (recombinant CHO cells overexpressing AOC3); format: biochemical; details: Table 1, read-out: AOC3 IC50
Excerpt: The MAO-Glo™ Assay (commercial available from PROMEGA, # V1402) provides a sensitive method for the measurement of monoamine oxidase (MAO) activity (Valley, M. P. et al., 2006, Anal. Biochem. 359: 238-246) from a variety of tissues, biofluids or recombinant expressed or purified enzymes. As substrate a derivate of the beetle luciferin ((4S)-4,5-dihydro-2-(6-hydroxybenzothiazolyl)-4-thiazole-carboxylic acid) is used, which is oxidized at a primary amine moiety. After a spontaneous elimination and a catalyzed esterase reaction, the turnover of the luciferine by the luciferase is recorded as a signal of AOC3 activity.
An aliquot of 3 μL of the compound dilution is added to a 384 well plate (Optiplate, PS, flat bottom, white, PERKIN ELMER, #6007290) with a final DMSO concentration of 6.6%. Recombinant CHO cells, overexpressing the human (1500 cells/well), mouse (1000 cells/well) or rat (500 cells/well) AOC3 enzyme are diluted in reaction buffer and added in a volume of 15 μL to the wells. After incubation for 20 minutes at 37° C., 2 μL of MAO substrate (dissolved in DMSO at 16 mM, adjusted to assay concentration in reaction buffer to a final assay concentration of 20 μM) is added and further incubated for 60 minutes at 37° C. The turnover of the substrate is determined by the addition of 20 μL of the detection-mix which was generated by the addition of reconstitution buffer with esterase (PROMEGA, # V1402) to the luciferine detection reagent (PROMEGA, # V1402). After an incubation period of 20 minutes, the luminescent signal is measured with Envision 2104 Multilabel Reader (PERKIN ELMER).
In the following table the activity expressed as IC50 (nM) of compounds according to the invention is presented wherein the IC50 values are determined in the MAO-Glo™ AOC3 assay as described hereinbefore. The term “Example” refers to the example numbers according to the following experimental section.

hepatocytes = assay: Metabolic stability assay in hepatocyte suspension; format: in vitro ADME; details: 1 μM test compound, Table 4
Experimental: The metabolic degradation of the test compound is assayed in a hepatocyte suspension. Hepatocytes (typically cryopreserved) are incubated in an appropriate buffer system (e.g. Dulbecco's modified eagle medium plus 3.5 μg glucagon/500 mL, 2.5 mg insulin/500 mL and 3.75 mg/500 mL hydrocortison) containing 5% species serum. Following a (typically) 30 min preincubation in an incubator (37° C., 10% CO2) 5 μl of test compound solution (80 μM; from 2 mM in DMSO stock solution diluted 1:25 with medium) are added into 395 μl hepatocyte suspension (cell density in the range 0.25-5 Mio cells/mL, typically 1 Mio cells/mL; final concentration of test compound 1 μM, final DMSO concentration 0.05%). The cells are incubated for six hours (incubator, orbital shaker) and samples (25 μl) are taken at 0, 0.5, 1, 2, 4 and 6 hours. Samples are transferred into acetonitrile and pelleted by centrifugation (5 min). The supernatant is transferred to a new 96-deepwell plate, evaporated under nitrogen and resuspended. Decline of parent compound is analyzed by HPLC-MS/MS
CLint is calculated as follows CL_INTRINSIC=Dose/AUC=(C0/CD)/(AUD+clast/k)×1000/60. C0: initial concentration in the incubation [μM], CD: cell density of vital cells [10e6 cells/mL], AUD: area under the data [μM×h], clast: concentration of last data point [μM], k: slope of the regression line for parent decline [h-1].
The calculated in vitro hepatic intrinsic clearance can be scaled up to the intrinsic in vivo hepatic Clearance and used to predict hepatic in vivo blood clearance (CL) by the use of a liver model (well stirred model). CL_INTRINSIC_INVIVO [ml/min/kg]=(CL_INTRINSIC [μL/min/10e6 cells]×hepatocellularity [10e6 cells/g liver]×liver factor [g/kg bodyweight])/1000 CL [ml/min/kg]=CL_INTRINSIC_INVIVO [ml/min/kg]×hepatic blood flow [ml/min/kg]/(CL_INTRINSIC_INVIVO [ml/min/kg]+hepatic blood flow [ml/min/kg])

Chain of AOC3 (Q16853 whole entry): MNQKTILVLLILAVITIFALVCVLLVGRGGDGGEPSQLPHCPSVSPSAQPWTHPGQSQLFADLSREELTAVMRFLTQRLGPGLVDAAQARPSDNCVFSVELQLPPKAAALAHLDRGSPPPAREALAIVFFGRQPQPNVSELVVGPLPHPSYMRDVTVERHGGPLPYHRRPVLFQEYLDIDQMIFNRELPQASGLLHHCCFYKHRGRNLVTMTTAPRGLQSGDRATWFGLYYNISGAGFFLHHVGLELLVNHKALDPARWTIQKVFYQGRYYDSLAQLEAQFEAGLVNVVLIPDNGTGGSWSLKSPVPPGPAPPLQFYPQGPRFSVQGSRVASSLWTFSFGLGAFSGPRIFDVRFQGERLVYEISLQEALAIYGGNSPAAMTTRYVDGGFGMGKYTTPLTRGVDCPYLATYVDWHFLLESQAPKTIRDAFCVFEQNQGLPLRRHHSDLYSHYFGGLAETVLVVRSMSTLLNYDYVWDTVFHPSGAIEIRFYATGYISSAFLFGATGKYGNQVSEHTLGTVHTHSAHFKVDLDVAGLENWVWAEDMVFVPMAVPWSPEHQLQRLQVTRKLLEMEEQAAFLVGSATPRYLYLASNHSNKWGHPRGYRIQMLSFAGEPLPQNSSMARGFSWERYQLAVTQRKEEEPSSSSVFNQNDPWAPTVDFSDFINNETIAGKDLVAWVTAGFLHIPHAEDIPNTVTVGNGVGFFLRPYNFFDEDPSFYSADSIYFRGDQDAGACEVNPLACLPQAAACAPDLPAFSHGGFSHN

SMILES | IC50 (AOC3) | QH (hepatocytes)
Cc1ccc(C2CCN(c3nccc(COC(=O)NC(=N)N)c3F)CC2)cc1 [Example 1.029] | 9 nM | –
COc1cnc(C2CCN(c3nccc(COC(=O)NC(=N)N)c3F)CC2)nc1 [Example 1.071] | 8 nM | –
COc1ncc(N2CCN(c3nccc(COC(=O)NC(=N)N)n3)CC2)cn1 [Example 1.040] | 7 nM | 7%
N=C(N)NC(=O)OCc1ccnc(N2CC(c3ccc(OCC4CC4)cc3)C2)c1F [Example 1.081] | 22 nM | –
N#Cc1cnc(N2CCN(c3nccc(COC(=O)NC(=N)N)c3F)CC2)nc1 [Example 1.059] | 16 nM | –
CCc1ccc(N2CCN(c3nccc(COC(=O)NC(=N)N)c3F)CC2)cc1 [Example 1.062] | 11 nM | –
N=C(N)NC(=O)OCc1ccnc(N2CC(c3ccccc3)C2)c1F [Example 1.001] | 98 nM | –
N=C(N)NC(=O)OCc1ccnc(N2CCC(C3CCCCC3)CC2)c1F [Example 1.020] | 35 nM | –
N#Cc1ccc(N2CCN(c3nccc(COC(=O)NC(=N)N)c3F)CC2)cn1 [Example 1.057] | 3 nM | –
N=C(N)NC(=O)OCc1ccnc(N2CCC(c3ccccc3)CC2)c1F [Example 1.008] | 15 nM | –
N=C(N)NC(=O)OCc1ccnc(N2CC=C(c3ncc(F)cn3)CC2)c1F [Example 1.042] | 28 nM | –
N=C(N)NC(=O)OCc1ccnc(N2CCN(c3ccccc3F)CC2)c1F [Example 1.043] | 13 nM | –
N=C(N)NC(=O)OCc1ccnc(N2CCC(c3ccc(C(F)(F)F)cc3)CC2)c1F [Example 1.096] | 12 nM | –
N=C(N)NC(=O)OCc1ccnc(N2CCC(N3CC[S+]([O-])CC3)CC2)c1F [Example 1.080] | 86 nM | –
N=C(N)NC(=O)OCc1ccnc(N2CC3CC2CN3c2cccc(F)c2)c1F (stereo not drawn) [Example 1.066] | 278 nM | –
N=C(N)NC(=O)OCc1ccnc(N2CCN(c3ccccc3Cl)CC2)c1F [Example 1.076] | 39 nM | –
N=C(N)NC(=O)OCc1ccnc(N2CCC(c3ccc(C(=O)O)cc3)CC2)c1F [Example 1.082] | 2 nM | –
N=C(N)NC(=O)OCc1ccnc(N2CCN(c3ccccn3)CC2)c1F [Example 1.012] | 62 nM | –
N=C(N)NC(=O)OCc1ccnc(N2CCC(c3ncc(Cl)cn3)CC2)c1F [Example 1.079] | 11 nM | –
N=C(N)NC(=O)OCc1ccnc(N2CC=C(c3ccccn3)CC2)c1F [Example 1.006] | 18 nM | –
N=C(N)NC(=O)OCc1ccnc(N2CCN(c3ccccc3)CC2)c1F [Example 1.009] | 41 nM | –

SMILES | IC50 (AOC3) | QH (hepatocytes)
N=C(N)NC(=O)OCc1ccnc(N2CCN(c3cccnn3)CC2)c1F [Example 1.013] | 22 nM | –
N=C(N)NC(=O)OCc1ccnc(N2CCN(c3ncc(F)cn3)CC2)c1F [Example 1.045] | 24 nM | –
N=C(N)NC(=O)OCc1ccnc(N2CC=C(c3ncco3)CC2)c1F [Example 1.004] | 38 nM | –
N=C(N)NC(=O)OCc1ccnc(N2CC=C(c3ccc(Cl)cc3)CC2)c1F [Example 1.069] | 15 nM | –
CC(C)(C)OC(=O)N1CC(C2CCN(c3nccc(COC(=O)NC(=N)N)c3F)CC2)C1 [Example 1.102] | 65 nM | –
CN(C)Cc1ccc(C2CCN(c3nccc(COC(=O)NC(=N)N)c3F)CC2)cc1 [Example 1.090] | 10 nM | –
N=C(N)NC(=O)OCc1ccnc(N2C3CCC2CC(c2ccccc2)C3)c1F (stereo not drawn) [Example 1.052] | 84 nM | –
N=C(N)NC(=O)OCc1ccnc(N2CCN(c3ncccn3)CC2)c1F [Example 1.014] | 41 nM | –
N=C(N)NC(=O)OCc1ccnc(N2CCN(c3ncc(C(F)(F)F)cn3)CC2)c1F [Example 1.098] | 15 nM | –
COC(=O)c1cnc(N2CCN(c3nccc(COC(=O)NC(=N)N)c3F)CC2)nc1 [Example 1.093] | 17 nM | –
N#Cc1ccc(N2CCN(c3nccc(COC(=O)NC(=N)N)c3F)CC2)c(C(F)(F)F)c1 [Example 1.105] | 31 nM | –
N=C(N)NC(=O)OCc1ccnc(N2CCN(c3ncncn3)CC2)c1F [Example 1.018] | 17 nM | –
CCOc1ccc(C2CCN(c3nccc(COC(=O)NC(=N)N)c3F)CC2)cn1 [Example 1.087] | 12 nM | –
Cc1cnc(C2=CCN(c3nccc(COC(=O)NC(=N)N)c3F)CC2)nc1 [Example 1.030] | 23 nM | –
N=C(N)NC(=O)OCc1ccnc(N2CCC(N3CCC(C(N)=O)CC3)CC2)c1F [Example 1.088] | 48 nM | –
Cc1cccc(C2CCN(c3nccc(COC(=O)NC(=N)N)c3F)CC2)c1 [Example 1.028] | 10 nM | –
N=C(N)NC(=O)OCc1ccnc(N2CC=C(c3ncccn3)CC2)c1F [Example 1.007] | 96 nM | –
Cc1ccc(N2CCN(c3nccc(COC(=O)NC(=N)N)c3F)CC2)cc1 [Example 1.032] | 11 nM | –
N=C(N)NC(=O)OCc1ccnc(N2CCC(c3nccs3)CC2)c1F [Example 1.022] | 49 nM | –
N#CC1CCN(C2CCN(c3nccc(COC(=O)NC(=N)N)c3F)CC2)CC1 [Example 1.070] | 77 nM | –
Cc1ccccc1N1CCN(c2nccc(COC(=O)NC(=N)N)c2F)CC1 [Example 1.034] | 58 nM | –

SMILES | IC50 (AOC3) | QH (hepatocytes)
Cc1cnc(C2=CCN(c3nccc(COC(=O)NC(=N)N)c3F)CC2)o1 [Example 1.015] | 17 nM | –
N=C(N)NC(=O)OCc1ccnc(N2CCC(N3CCOCC3)CC2)c1F [Example 1.025] | 92 nM | –
N=C(N)NC(=O)OCc1ccnc(N2CCC(N3CCOC3=O)CC2)c1F [Example 1.026] | 111 nM | –
N=C(N)NC(=O)OCc1ccnc(N2CCN(c3nccs3)CC2)c1F [Example 1.024] | 18 nM | –
Cc1cccc(C)c1N1CCN(c2nccc(COC(=O)NC(=N)N)c2F)CC1 [Example 1.060] | 217 nM | –
Cc1ccc(N2CCN(c3nccc(COC(=O)NC(=N)N)c3F)CC2)nc1 [Example 1.038] | 14 nM | –
CC1CN(c2nccc(COC(=O)NC(=N)N)c2F)CCN1c1ccccc1 (stereo not drawn) [Example 1.035] | 14 nM | –
COc1cnc(N2CCN(c3nccc(COC(=O)NC(=N)N)c3F)CC2)nc1 [Example 1.073] | 10 nM | –
COC(=O)c1ccc(N2CCN(c3nccc(COC(=O)NC(=N)N)c3F)CC2)nn1 [Example 1.094] | 14 nM | –
N=C(N)NC(=O)OCc1ccnc(N2CC=C(c3ccccc3)CC2)c1F [Example 1.005] | 17 nM | –
N#Cc1ccc(C2CN(c3cccc(COC(=O)NC(=N)N)n3)C2)cc1 [Example 1.003] | 16 nM | –
N=C(N)NC(=O)OCc1ccnc(N2CC(c3ccccn3)C2)c1F [Example 1.002] | 172 nM | –
N=C(N)NC(=O)OCc1ccnc(N2CCC(N3CCCCC3=O)CC2)c1F [Example 1.046] | 128 nM | –
Cc1ccc(N2CCN(c3nccc(COC(=O)NC(=N)N)c3F)CC2)cc1C [Example 1.063] | 13 nM | –
Cc1cnc(C2CCN(c3nccc(COC(=O)NC(=N)N)c3F)CC2)o1 [Example 1.019] | 84 nM | –
N=C(N)NC(=O)OCc1ccnc(N2CCN(c3ccc(C(F)(F)F)cc3)CC2)c1F [Example 1.097] | 11 nM | –
N=C(N)NC(=O)OCc1ccnc(N2CCN(C3CCCC3)C(=O)C2)c1F [Example 1.021] | 26 nM | –
N=C(N)NC(=O)OCc1ccnc(N2CCC(c3cccc(Cl)c3)CC2)c1F [Example 1.075] | 14 nM | –
N=C(N)NC(=O)OCc1ccnc(N2CCC3(C=Cc4ccccc43)CC2)c1F [Example 1.049] | 22 nM | –
N=C(N)NC(=O)OCc1ccnc(N2CCC3(CCc4ccccc43)CC2)c1F [Example 1.053] | 83 nM | –
